This is an account of results in US20240025905A1, “SALTS OF DIHYDROPYRIMIDINE DERIVATIVES, COMPLEXES AND USES THEREOF IN MEDICINE” (SUNSHINE LAKE PHARMA CO., LTD., priority 2020, published 2024).

The nature of data set [1]: Stability test (high temperature, high humidity and light tests). The format is physicochemical. The conditions noted are these: for stability (in words): high temperature, high humidity or light conditions for 10 days. Here is the method: High temperature test: An appropriate amount of the test product was added into a flat weighing bottle and spread into a thin layer with thickness ≤5 mm. The bottle was placed at 60° C. or 40° C. for 10 days. Samples were taken at the 5th and 10th days to check the appearance, related substances and purity.
High humidity test: An appropriate amount of the test product was added into a flat weighing bottle and spread into a thin layer with thickness 5 mm. The bottle was placed at 25° C. and a relative humidity of 90%±5% for 10 days. Samples were taken at the 5th and 10th days to check the appearance, related substances and purity. At the same time, the weight of the test product before and after the test were accurately weighed to investigate the moisture absorption and deliquescence performance of the test product. Light test: An appropriate amount of the test product was added into a flat weighing bottle and spread into a thin layer with thickness ≤5 mm. The bottle was opened and placed in a light box (with UV) at the illuminance 4500±500 lx, UV light≥0.7 w/m^2 for 10 days. Samples were taken at the 5th and 10th days to check the appearance, related substances and purity.

Data set [2] is described as follows: Experimental research on hygroscopicity. The following applies: 25° C.±1° C., relative humidity 90%±2%, 24 hours. The format is physicochemical. Here is the method:
A dry stoppered glass weighing bottle (outer diameter was 50 mm, height was 15 mm) was placed in a suitable constant temperature dryer (a saturated solution of ammonium chloride or ammonium sulfate was placed at the bottom, the relative humidity was within 90%±2%) at 25° C.±1° C. the day before, and the weighing bottle was precisely weighed (m1). An appropriate amount of the test product was spread flat in the above weighing bottle. The thickness of the test product was generally about 1 mm, and the weighing bottle was precisely weighed (m2). The weighing bottle was opened and placed for 24 hours under the above constant temperature and humidity conditions with the bottle cap. The weighing bottle was closed and precisely weighed (m3), and the weight gain percentage (%) was calculated. Testing method: According to Ph.

The nature of data set [3]: Pharmacokinetic evaluation of experimental animals after oral administration. The following applies: for AUC0-t / Cmax: beagle dogs, oral via capsules, 10 mg/kg; for absorption in the body / in animals (in words): dog, in vivo; for exposure / pharmacokinetic properties (in words): experimental animals, oral. It counts as in vivo, Beagle dogs. Here is the method:
Blood samples were taken at 0.25, 0.5, 1, 2, 4, 6, 8 and 24 hours from forelimb vein after the administration, and collected in anticoagulation tube with EDTA-K2. After liquid-liquid extraction, the blood samples were quantitatively analyzed on a triple quadrupole tandem mass spectrometer using multiple reactive ion monitoring (MRM). Pharmacokinetic parameters (AUC0-t and Cmax) were calculated using a noncompartmental method by WinNonLin 6.3 software.

[4] abbreviates: High humidity (90% RH), 25° C., 5 days.
[5] abbreviates: High humidity (90% RH), 25° C., 10 days.
Where [6] appears, read: High temperature (60° C.), 5 days.
Where [7] appears, read: High temperature (60° C.), 10 days.
[8] abbreviates: Light (4500±500 lx, UV light≥0.7 w/m^2), 5 days.
The mark [9] stands for this setting: Light (4500±500 lx, UV light≥0.7 w/m^2), 10 days.

Consider `COC(=O)C1=C(CN2CCN3C(=O)N(c4ccc(CCC(=O)O)cc4F)C[C@@H]3C2)N=C(c2nccs2)N[C@H]1c1ccc(F)cc1Cl.Cl` [3-(4-((S)-7-(((R)-6-(2-chloro-4-fluorophenyl)-5-(methoxycarbonyl)-2-(thiazol-2-yl)-1,6-dihydropyrimidin-4-yl)methyl)-3-oxohexahydroimidazo[1,5-a]pyrazine-2(3H)-yl)-3-fluorophenyl)prop ionic acid hydrochloride crystal form A], for which the “Purity (%)” value is on record as 99.39% in data set [1] (0 days); 99.37% in data set [1] (setting [4]); 99.30% in data set [1] (setting [5]); 99.36% in data set [1] (setting [6]); 99.22% in data set [1] (setting [7]); 99.34% in data set [1] (setting [8]). Moreover, the “Purity (%)” value in data set [1] (setting [9]) is on record as 99.26%. Further, the “stability (in words)” value in data set [1] was “very good”. In data set [2], the “Weight gain of moisture absorption (%)” value is listed as 1.32%. Moreover, the hygroscopicity judgment entry in data set [2] was “slightly hygroscopicity”. The same compound gave an AUC0-t in data set [3] of 8630 ng·h/mL. Also, the Cmax in data set [3] came out at 4980 ng/mL. Also, the “absorption in the body / in animals (in words)” value in data set [3] is recorded as “better absorbed”. Besides, in data set [3], the “exposure / pharmacokinetic properties (in words)” value is recorded as “higher exposure”.

As for `Br.COC(=O)C1=C(CN2CCN3C(=O)N(c4ccc(CCC(=O)O)cc4F)C[C@@H]3C2)N=C(c2nccs2)N[C@H]1c1ccc(F)cc1Cl` [3-(4-((S)-7-(((R)-6-(2-chloro-4-fluorophenyl)-5-(methoxycarbonyl)-2-(thiazol-2-yl)-1,6-dihydropyrimidin-4-yl)methyl)-3-oxohexahydroimidazo[1,5-a]pyrazine-2(3H)-yl)-3-fluorophenyl)propionic acid hydrobromide crystal form A], the “Purity (%)” value in data set [1] (0 days) was found to be 98.41%; in data set [1] (setting [4]), 98.82%; in data set [1] (setting [5]), 98.69%; in data set [1] (setting [6]) it was 98.43%; in data set [1] (setting [7]), 98.93%; in data set [1] (setting [8]), 98.80%. The “Purity (%)” value in data set [1] (setting [9]) came out at 98.88%. Further, the “stability (in words)” value in data set [1] is listed as “very good”. The AUC0-t in data set [3] was found to be 5690 ng·h/mL. This compound also gave a maximum concentration (Cmax) in data set [3] of 3340 ng/mL.

Consider `COC(=O)C1=C(CN2CCN3C(=O)N(c4ccc(CCC(=O)O)cc4F)C[C@@H]3C2)N=C(c2nccs2)N[C@H]1c1ccc(F)cc1Cl.CS(=O)(=O)O` [3-(4-((S)-7-(((R)-6-(2-chloro-4-fluorophenyl)-5-(methoxycarbonyl)-2-(thiazol-2-yl)-1,6-dihydropyrimidin-4-yl)methyl)-3-oxohexahydroimidazo[1,5-a]pyrazine-2(3H)-yl)-3-fluorophenyl)propionic acid methanesulfonate crystal form A], for which the “Purity (%)” value worked out at 99.40% in data set [1] (0 days); 99.37% in data set [1] (setting [4]); 99.36% in data set [1] (setting [5]); 99.15% in data set [1] (setting [6]); 98.68% in data set [1] (setting [7]); 99.37% in data set [1] (setting [8]). Besides, the “Purity (%)” value in data set [1] (setting [9]) came to 99.40%. In addition, the “stability (in words)” value in data set [1] was “very good”.

As for `COC(=O)C1=C(CN2CCN3C(=O)N(c4ccc(CCC(=O)O)cc4F)C[C@@H]3C2)NC(c2nccs2)=N[C@H]1c1ccc(F)cc1Cl.N=C(N)NCCC[C@H](N)C(=O)O` [3-(4-((S)-7-(((R)-6-(2-chloro-4-fluorophenyl)-5-(methoxycarbonyl)-2-(thiazol-2-yl)-3,6-dihydropyrimidin-4-yl)methyl)-3-oxohexahydroimidazo[1,5-a]pyrazine-2(3H)-yl)-3-fluorophenyl)prop ionic acid L-arginine salt crystal form A], the “Purity (%)” value in data set [1] (0 days) is reported as 99.52%; in data set [1] (setting [4]) it was 99.38%; in data set [1] (setting [5]), 99.39%; in data set [1] (setting [6]), 99.46%; in data set [1] (setting [7]), 99.42%; in data set [1] (setting [8]) it was 99.10%. Further, in data set [1] (setting [9]), the “Purity (%)” value came to 98.72%. In data set [1], the “stability (in words)” value is reported as “very good”. Also, in data set [2], the “Weight gain of moisture absorption (%)” value is given as 1.34%. The hygroscopicity judgment entry in data set [2] is recorded as “slightly hygroscopicity”. The same compound had an AUC0-t in data set [3] of 13100 ng·h/mL. In addition, in data set [3], the Cmax came to 6810 ng/mL. The “absorption in the body / in animals (in words)” value in data set [3] was “better absorbed”. Moreover, the “exposure / pharmacokinetic properties (in words)” value in data set [3] is given as “higher exposure”.

For the compound `CN(C)C=O.COC(=O)C1=C(CN2CCN3C(=O)N(c4ccc(CCC(=O)O)cc4F)C[C@@H]3C2)NC(c2nccs2)=N[C@H]1c1ccc(F)cc1Cl` [3-(4-((S)-7-(((R)-6-(2-chloro-4-fluorophenyl)-5-(methoxycarbonyl)-2-(thiazol-2-yl)-3,6-dihydropyrimidin-4-yl)methyl)-3-oxohexahydroimidazo[1,5-a]pyrazine-2(3H)-yl)-3-fluorophenyl)prop ionic acid N,N-dimethylformamide complex], the “Purity (%)” value came out at 98.63% in data set [1] (0 days); 98.87% in data set [1] (setting [4]); 98.71% in data set [1] (setting [5]); 98.48% in data set [1] (setting [6]); 97.76% in data set [1] (setting [7]); 98.82% in data set [1] (setting [8]). In data set [1] (setting [9]), the “Purity (%)” value was 98.48%. Also, in data set [1], the “stability (in words)” value was “very good”.

On to `COC(=O)C1=C(CN2CCN3C(=O)N(c4ccc(CCC(=O)O)cc4F)C[C@@H]3C2)N=C(c2nccs2)N[C@H]1c1ccc(F)cc1Cl.O=P(O)(O)O` [Phosphate crystal form A of the compound having Formula (Ia)] [3-(4-((S)-7-(((R)-6-(2-chloro-4-fluorophenyl)-5-(methoxycarbonyl)-2-(thiazol-2-yl)-1,6-dihydropyrimidin-4-yl)methyl)-3-oxohexahydroimidazo[1,5-a]pyrazine-2(3H)-yl)-3-fluorophenyl)prop ionic acid phosphate crystal form A], for which the “Purity (%)” value is listed as 99.13% in data set [1] (0 days); 99.04% in data set [1] (setting [4]); 99.07% in data set [1] (setting [5]); 98.86% in data set [1] (setting [6]); 98.39% in data set [1] (setting [7]); 99.03% in data set [1] (setting [8]). In addition, the “Purity (%)” value in data set [1] (setting [9]) is reported as 99.06%. Besides, in data set [1], the “stability (in words)” value is “very good”. Also, the AUC0-t in data set [3] turned out to be 4350 ng·h/mL. The compound also displayed a Cmax in data set [3] of 2690 ng/mL.

In the case of `COC(=O)C1=C(CN2CCN3C(=O)N(c4ccc(CCC(=O)O)cc4F)C[C@@H]3C2)N=C(c2nccs2)N[C@H]1c1ccc(F)cc1Cl.O=P(O)(O)O` [Phosphate crystal form C of the compound having Formula (Ia)] [3-(4-((S)-7-(((R)-6-(2-chloro-4-fluorophenyl)-5-(methoxycarbonyl)-2-(thiazol-2-yl)-1,6-dihydropyrimidin-4-yl)methyl)-3-oxohexahydroimidazo[1,5-a]pyrazine-2(3H)-yl)-3-fluorophenyl)prop ionic acid phosphate crystal form C], the “Purity (%)” value turned out to be 99.34% in data set [1] (0 days); 99.29% in data set [1] (setting [4]); 99.36% in data set [1] (setting [5]); 87.42% in data set [1] (setting [6]); 60.31% in data set [1] (setting [7]); 99.30% in data set [1] (setting [8]). For the same compound, the “Purity (%)” value in data set [1] (setting [9]) turned out to be 99.30%. The “stability under high temperature (in words)” value in data set [1] (high temperature (such as 60° C.)) was “unstable”. In data set [3], the AUC0-t was found to be 1900 ng·h/mL. In data set [3], the peak concentration (Cmax) stood at 907 ng/mL.

Turning to `COC(=O)C1=C(CN2CCN3C(=O)N(c4ccc(CCC(=O)O)cc4F)C[C@@H]3C2)N=C(c2nccs2)N[C@H]1c1ccc(F)cc1Cl.O=S(=O)(O)O` [Sulfate crystal form A of the compound having Formula (Ia)] [3-(4-((S)-7-(((R)-6-(2-chloro-4-fluorophenyl)-5-(methoxycarbonyl)-2-(thiazol-2-yl)-1,6-dihydropyrimidin-4-yl)methyl)-3-oxohexahydroimidazo[1,5-a]pyrazine-2(3H)-yl)-3-fluorophenyl)prop ionic acid sulfate crystal form A], the “Purity (%)” value in data set [1] (0 days) is 99.14%; in data set [1] (setting [4]), 99.17%; in data set [1] (setting [5]) it was 99.22%; in data set [1] (setting [6]), 99.16%; in data set [1] (setting [7]), 99.12%; in data set [1] (setting [8]) it was 99.17%. For the same compound, the “Purity (%)” value in data set [1] (setting [9]) is recorded as 99.15%. For the same compound, in data set [1], the “stability (in words)” value was “very good”.

Broadly, the Cmax is the highest concentration seen after dosing.
